PubChem BioAssay (NCI)
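Results reflect a 48-hour exposure of cells in 96-well plates to compound at five concentrations. GI50: concentration for 50% inhibition of growth. TGI: total growth inhibition.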

Assays:
Experiment in all cases: NCI-60 cell line screen, 48 h
[1] = tested on: HCT-15 colon
[2] = tested on: MOLT-4 leukemia
[3] = tested on: NCI/ADR-RES ovarian
[4] = tested on: SR leukemia
[5] = tested on: 786-0 renal
[6] = tested on: A498 renal
[7] = tested on: A549 NSCLC
[8] = tested on: ACHN renal
[9] = tested on: BT-549 breast
[10] = tested on: CAKI-1 renal
[11] = tested on: CCRF-CEM leukemia
[12] = tested on: COLO 205 colon
[13] = tested on: DU-145 prostate
[14] = tested on: EKVX NSCLC
[15] = tested on: HCC-2998 colon
[16] = tested on: HCT-116 colon
[17] = tested on: HL-60(TB) leukemia
[18] = tested on: HOP-62 NSCLC
[19] = tested on: HOP-92 NSCLC
[20] = tested on: HS 578T breast
[21] = tested on: HT29 colon
[22] = tested on: IGROV1 ovarian
[23] = tested on: K-562 leukemia
[24] = tested on: KM12 colon
[25] = tested on: LOX IMVI melanoma
[26] = tested on: M14 melanoma
[27] = tested on: MALME-3M melanoma
[28] = tested on: MCF7 breast
[29] = tested on: MDA-MB-231 breast
[30] = tested on: MDA-MB-435
[31] = tested on: MDA-MB-468 breast
[32] = tested on: NCI-H226 lung
[33] = tested on: NCI-H23 lung
[34] = tested on: NCI-H460 lung
[35] = tested on: NCI-H522 lung
[36] = tested on: OVCAR-3 ovarian
[37] = tested on: OVCAR-4 ovarian
[38] = tested on: OVCAR-5 ovarian
[39] = tested on: OVCAR-8 ovarian
[40] = tested on: PC-3 prostate
[41] = tested on: RPMI-8226 leukemia
[42] = tested on: RXF 393 renal
[43] = tested on: SF-268 CNS
[44] = tested on: SF-295 CNS
[45] = tested on: SF-539 CNS
[46] = tested on: SK-MEL-28 melanoma
[47] = tested on: SK-MEL-5 melanoma
[48] = tested on: SK-OV-3 ovarian
[49] = tested on: SN12C renal
[50] = tested on: SNB-19 CNS
[51] = tested on: SNB-75 CNS
[52] = tested on: SW-620 colon
[53] = tested on: T-47D breast
[54] = tested on: TK-10 renal
[55] = tested on: U251 CNS
[56] = tested on: UACC-257 melanoma
[57] = tested on: UACC-62 melanoma
[58] = tested on: UO-31 renal

Q: What does the source list for `NS(=O)(=O)c1ccc(-n2cc(-c3cccc(NC(=O)c4ccc(Cl)c(C(F)(F)F)c4)c3)nn2)cc1`?
A: GI50 [1]: 7.8 µM; TGI [1]: 68.5 µM; GI50 [2]: 3.1 µM; TGI [2]: > 100 µM; GI50 [3]: 80.7 µM; TGI [3]: > 100 µM; GI50 [4]: 3.9 µM; TGI [4]: > 100 µM

Q: What does the source list for `CC1(C)CC[C@]2(C(=O)Nc3ccc(F)cc3)CC[C@]3(C)C(=CCC4[C@@]5(C)C[C@@H](O)[C@H](O)[C@@](C)(CO)C5CC[C@]43C)C2C1` (some centres not stated)?
A: GI50 [5]: 15.5 µM; TGI [5]: 30.4 µM; GI50 [6]: 20.8 µM; TGI [6]: 45.6 µM; GI50 [7]: 29.5 µM; TGI [7]: > 100 µM; GI50 [8]: 14.8 µM; TGI [8]: 28.1 µM; GI50 [9]: 13.1 µM; TGI [9]: 26.8 µM; GI50 [10]: 11.1 µM; TGI [10]: 39.6 µM; GI50 [11]: 20 µM; TGI [11]: 90.6 µM; GI50 [12]: 16.7 µM; TGI [12]: 33.6 µM; GI50 [13]: 20.1 µM; TGI [13]: 45.6 µM; GI50 [14]: 17.2 µM; TGI [14]: 47.2 µM; GI50 [15]: 16.7 µM; TGI [15]: 31.1 µM; GI50 [16]: 13.1 µM; TGI [16]: 26 µM; GI50 [1]: 13.2 µM; TGI [1]: 27.4 µM; GI50 [17]: 14.2 µM; TGI [17]: 38.8 µM; GI50 [18]: 18.8 µM; TGI [18]: 43.5 µM; GI50 [19]: 13.2 µM; TGI [19]: 29 µM; GI50 [20]: 20.5 µM; TGI [20]: 76.9 µM; GI50 [21]: 15.6 µM; TGI [21]: 30.5 µM; GI50 [22]: 15.8 µM; TGI [22]: 34.1 µM; GI50 [23]: 17.8 µM; TGI [23]: 62.8 µM; GI50 [24]: 17.5 µM; TGI [24]: 35.7 µM; GI50 [25]: 15.6 µM; TGI [25]: 30.7 µM; GI50 [26]: 15.7 µM; TGI [26]: 31.5 µM; GI50 [27]: 16 µM; TGI [27]: 29.9 µM; GI50 [28]: 13 µM; TGI [28]: 29.5 µM; GI50 [29]: 14.2 µM; TGI [29]: 28.7 µM; GI50 [30]: 14.4 µM; TGI [30]: 28.8 µM; GI50 [31]: 13.5 µM; TGI [31]: 31.3 µM; GI50 [2]: 7.51 µM; TGI [2]: 30.6 µM; GI50 [32]: 13.5 µM; TGI [32]: 34.3 µM; GI50 [33]: 17.9 µM; TGI [33]: 39.3 µM; GI50 [34]: 15.4 µM; TGI [34]: 33.8 µM; GI50 [35]: 17.6 µM; TGI [35]: 40.1 µM; GI50 [36]: 16.3 µM; TGI [36]: 31.2 µM; GI50 [37]: 16.8 µM; TGI [37]: 46.5 µM; GI50 [38]: 14.6 µM; TGI [38]: 28.4 µM; GI50 [39]: 29 µM; TGI [39]: > 100 µM; GI50 [40]: 12.8 µM; TGI [40]: 38.5 µM; GI50 [41]: 14.9 µM; TGI [41]: 64.6 µM; GI50 [42]: 10.9 µM; TGI [42]: 23.3 µM; GI50 [43]: 22.6 µM; TGI [43]: 89 µM; GI50 [44]: 13.9 µM; TGI [44]: 28.6 µM; GI50 [45]: 14.8 µM; TGI [45]: 28.3 µM; GI50 [46]: 15.6 µM; TGI [46]: 31.6 µM; GI50 [47]: 14.7 µM; TGI [47]: 27.8 µM; GI50 [48]: 20.3 µM; TGI [48]: 51 µM; GI50 [49]: 14.8 µM; TGI [49]: 29.6 µM; GI50 [50]: 23.8 µM; TGI [50]: > 100 µM; GI50 [51]: 13.5 µM; TGI [51]: 61 µM; GI50 [4]: 10.3 µM; TGI [4]: 37.3 µM; GI50 [52]: 25.8 µM; TGI [52]: > 100 µM; GI50 [53]: 12.9 µM; TGI [53]: 32.1 µM; GI50 [54]: 22.8 µM; TGI [54]: 54.1 µM; GI50 [55]: 14.9 µM; TGI [55]: 30 µM; GI50 [56]: 18.4 µM; TGI [56]: 47.9 µM; GI50 [57]: 9.17 µM; TGI [57]: 21.9 µM; GI50 [58]: 12.8 µM; TGI [58]: 29.2 µM
